Assay results from PubChem BioAssay AID212 (DTP/NCI, 2004).
Several values for one entry are separate records, joined by “and”; a condition that tells them apart may be missing. Equal entries are not always repeated. Inconclusive results are not listed.

Tested on: BDF1 mice, colon carcinoma 38 sc, T/C %
Assay: NCI In Vivo Anticancer Drug Screen. Data for tumor model Colon Carcinoma 38 (subcutaneous) in B6D2F1 (BDF1) mice
Outline: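 Ratio of survival or tumor size, compound-treated animals relative to vehicle controls, in tumor-bearing mice.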

[1] = endpoint: median tumor weight (est.), dose: 25.0 mg/kg/injection, schedule: Q07DX003 (ip), vehicle: Klucel (hydroxypropylcellulose) (HPC), higher = larger tumour
[2] = endpoint: median tumor weight (est.), dose: 50.0 mg/kg/injection, schedule: Q07DX003 (ip), vehicle: Klucel (hydroxypropylcellulose) (HPC), higher = larger tumour
[3] = endpoint: median tumor weight (est.), dose: 6.25 mg/kg/injection, schedule: Q07DX002 (ip), vehicle: Klucel (hydroxypropylcellulose) (HPC), higher = larger tumour
[4] = endpoint: median tumor weight (est.), dose: 25.0 mg/kg/injection, schedule: Q07DX002 (ip), vehicle: Klucel (hydroxypropylcellulose) (HPC), higher = larger tumour
[5] = endpoint: median tumor weight (est.), dose: 100.0 mg/kg/injection, schedule: Q07DX002 (ip), vehicle: Klucel (hydroxypropylcellulose) (HPC), higher = larger tumour
[6] = endpoint: median tumor weight (est.), dose: 200.0 mg/kg/injection, schedule: Q07DX002 (ip), vehicle: Klucel (hydroxypropylcellulose) (HPC), higher = larger tumour
[7] = endpoint: median tumor weight (est.), dose: 12.5 mg/kg/injection, schedule: Q07DX002 (ip), vehicle: Klucel (hydroxypropylcellulose) (HPC), higher = larger tumour
[8] = endpoint: median tumor weight (est.), dose: 50.0 mg/kg/injection, schedule: Q07DX002 (ip), vehicle: Klucel (hydroxypropylcellulose) (HPC), higher = larger tumour
[9] = endpoint: median tumor weight (est.), dose: 12.5 mg/kg/injection, schedule: Q07DX002 (ip), vehicle: saline with Tween-80, higher = larger tumour
[10] = endpoint: median tumor weight (est.), dose: 12.5 mg/kg/injection, schedule: Q07DX002 (ip), vehicle: saline, higher = larger tumour
[11] = endpoint: median tumor weight (est.), dose: 25.0 mg/kg/injection, schedule: Q07DX002 (ip), vehicle: saline with Tween-80, higher = larger tumour
[12] = endpoint: median tumor weight (est.), dose: 25.0 mg/kg/injection, schedule: Q07DX002 (ip), vehicle: saline, higher = larger tumour
[13] = endpoint: median tumor weight (est.), dose: 50.0 mg/kg/injection, schedule: Q07DX002 (ip), vehicle: saline with Tween-80, higher = larger tumour
[14] = endpoint: median tumor weight (est.), dose: 50.0 mg/kg/injection, schedule: Q07DX002 (ip), vehicle: saline, higher = larger tumour
[15] = endpoint: median tumor weight (est.), dose: 200.0 mg/kg/injection, schedule: Q07DX002 (ip), vehicle: saline, higher = larger tumour
[16] = endpoint: median tumor weight (est.), dose: 100.0 mg/kg/injection, schedule: Q07DX002 (ip), vehicle: saline with Tween-80, higher = larger tumour
[17] = endpoint: median tumor weight (est.), dose: 400.0 mg/kg/injection, schedule: Q07DX002 (ip), vehicle: saline with Tween-80, higher = larger tumour

O=C1c2ccccc2C(=O)c2c(NCCNCCO)ccc(NCCNCCO)c21
T/C (endpoint: median survival time, dose: 20.0 mg/kg/injection, schedule: Q04DX004 (ip), vehicle: saline, higher = longer survival): 110 % of control
T/C (endpoint: median survival time, dose: 40.0 mg/kg/injection, schedule: Q04DX004 (ip), vehicle: saline, higher = longer survival): 110 % of control
T/C (endpoint: median survival time, dose: 80.0 mg/kg/injection, schedule: Q04DX004 (ip), vehicle: saline, higher = longer survival): 120 % of control
T/C (endpoint: median tumor weight (est.), dose: 1.0 mg/kg/injection, schedule: Q07DX002 (ip), vehicle: saline, higher = larger tumour): 89 % of control
T/C (endpoint: median tumor weight (est.), dose: 1.5 mg/kg/injection, schedule: Q07DX003 (ip), vehicle: saline with Tween-80, higher = larger tumour): 47 % of control and 64 % of control
T/C (endpoint: median tumor weight (est.), dose: 2.0 mg/kg/injection, schedule: Q07DX002 (ip), vehicle: saline, higher = larger tumour): 77 % of control
T/C (endpoint: median tumor weight (est.), dose: 3.0 mg/kg/injection, schedule: Q07DX003 (ip), vehicle: saline with Tween-80, higher = larger tumour): 81 % of control
T/C (endpoint: median tumor weight (est.), dose: 3.0 mg/kg/injection, schedule: Q07DX003 (ip), vehicle: saline, higher = larger tumour): 59 % of control and 72 % of control
T/C (endpoint: median tumor weight (est.), dose: 4.0 mg/kg/injection, schedule: Q07DX002 (ip), vehicle: acid diluted with saline, higher = larger tumour): 82 % of control
T/C (endpoint: median tumor weight (est.), dose: 4.0 mg/kg/injection, schedule: Q07DX002 (ip), vehicle: saline, higher = larger tumour): 66 % of control
T/C (endpoint: median tumor weight (est.), dose: 6.0 mg/kg/injection, schedule: Q07DX003 (ip), vehicle: saline with Tween-80, higher = larger tumour): 11 % of control
T/C (endpoint: median tumor weight (est.), dose: 8.0 mg/kg/injection, schedule: Q07DX002 (ip), vehicle: Klucel (hydroxypropylcellulose) (HPC), higher = larger tumour): 107 % of control
T/C (endpoint: median tumor weight (est.), dose: 8.0 mg/kg/injection, schedule: Q07DX002 (ip), vehicle: acid diluted with saline, higher = larger tumour): 70 % of control
T/C (endpoint: median tumor weight (est.), dose: 8.0 mg/kg/injection, schedule: Q07DX002 (ip), vehicle: saline, higher = larger tumour): 82 % of control
T/C (endpoint: median tumor weight (est.), dose: 8.0 mg/kg/injection, schedule: Q07DX003 (ip), vehicle: Klucel (hydroxypropylcellulose) (HPC), higher = larger tumour): 65 % of control
T/C (endpoint: median tumor weight (est.), dose: 8.0 mg/kg/injection, schedule: Q07DX003 (ip), vehicle: water, higher = larger tumour): 56 % of control
T/C (endpoint: median tumor weight (est.), dose: 16.0 mg/kg/injection, schedule: Q07DX002 (ip), vehicle: Klucel (hydroxypropylcellulose) (HPC), higher = larger tumour): 120 % of control
T/C (endpoint: median tumor weight (est.), dose: 16.0 mg/kg/injection, schedule: Q07DX002 (ip), vehicle: acid diluted with saline, higher = larger tumour): 39 % of control
T/C (endpoint: median tumor weight (est.), dose: 16.0 mg/kg/injection, schedule: Q07DX002 (ip), vehicle: saline, higher = larger tumour): 48 % of control
T/C (endpoint: median tumor weight (est.), dose: 16.0 mg/kg/injection, schedule: Q07DX003 (ip), vehicle: Klucel (hydroxypropylcellulose) (HPC), higher = larger tumour): 54 % of control
T/C (endpoint: median tumor weight (est.), dose: 16.0 mg/kg/injection, schedule: Q07DX003 (ip), vehicle: water, higher = larger tumour): 47 % of control
T/C [1]: 46 % of control
T/C (endpoint: median tumor weight (est.), dose: 25.0 mg/kg/injection, schedule: Q07DX003 (iv), vehicle: Klucel (hydroxypropylcellulose) (HPC), higher = larger tumour): 4 % of control and 18 % of control and 25 % of control
T/C (endpoint: median tumor weight (est.), dose: 32.0 mg/kg/injection, schedule: Q07DX002 (ip), vehicle: Klucel (hydroxypropylcellulose) (HPC), higher = larger tumour): 65 % of control
T/C (endpoint: median tumor weight (est.), dose: 32.0 mg/kg/injection, schedule: Q07DX002 (ip), vehicle: acid diluted with saline, higher = larger tumour): 4 % of control
T/C (endpoint: median tumor weight (est.), dose: 32.0 mg/kg/injection, schedule: Q07DX002 (ip), vehicle: saline, higher = larger tumour): 10 % of control
T/C (endpoint: median tumor weight (est.), dose: 32.0 mg/kg/injection, schedule: Q07DX003 (ip), vehicle: Klucel (hydroxypropylcellulose) (HPC), higher = larger tumour): 52 % of control
T/C (endpoint: median tumor weight (est.), dose: 32.0 mg/kg/injection, schedule: Q07DX003 (ip), vehicle: water, higher = larger tumour): 28 % of control
T/C [2]: 45 % of control
T/C (endpoint: median tumor weight (est.), dose: 50.0 mg/kg/injection, schedule: Q07DX003 (iv), vehicle: Klucel (hydroxypropylcellulose) (HPC), higher = larger tumour): 11 % of control and 17 % of control
T/C (endpoint: median tumor weight (est.), dose: 64.0 mg/kg/injection, schedule: Q07DX002 (ip), vehicle: Klucel (hydroxypropylcellulose) (HPC), higher = larger tumour): 26 % of control

C/C=C(\C)C(=O)OC1C(C)=C2C(C1OC(=O)CCCC)C(C)(OC(C)=O)CC(OC(=O)CCCC)C1(O)C2OC(=O)C1(C)O (stereo not drawn)
T/C (endpoint: median tumor weight (est.), dose: 1.68 mg/kg/injection, schedule: Q07DX002 (ip), vehicle: Klucel (hydroxypropylcellulose) (HPC), higher = larger tumour): 54 % of control
T/C (endpoint: median tumor weight (est.), dose: 3.37 mg/kg/injection, schedule: Q07DX002 (ip), vehicle: Klucel (hydroxypropylcellulose) (HPC), higher = larger tumour): 87 % of control
T/C (endpoint: median tumor weight (est.), dose: 6.75 mg/kg/injection, schedule: Q07DX002 (ip), vehicle: Klucel (hydroxypropylcellulose) (HPC), higher = larger tumour): 61 % of control
T/C (endpoint: median tumor weight (est.), dose: 13.5 mg/kg/injection, schedule: Q07DX002 (ip), vehicle: Klucel (hydroxypropylcellulose) (HPC), higher = larger tumour): 105 % of control

C/C(=C\c1ccccc1)[N+](=O)[O-]
T/C (endpoint: median tumor weight (est.), dose: 12.5 mg/kg/injection, schedule: Q07DX003 (ip), vehicle: Klucel (hydroxypropylcellulose) (HPC), higher = larger tumour): 81 % of control
T/C [1]: 79 % of control and 91 % of control
T/C [2]: 82 % of control and 90 % of control

NCCOCC(N)C(=O)O (stereo not drawn)
T/C (endpoint: median tumor weight (est.), dose: 125.0 mg/kg/injection, schedule: Q07DX002 (ip), vehicle: saline, higher = larger tumour): 112 % of control
T/C (endpoint: median tumor weight (est.), dose: 250.0 mg/kg/injection, schedule: Q07DX002 (ip), vehicle: saline, higher = larger tumour): 84 % of control
T/C (endpoint: median tumor weight (est.), dose: 500.0 mg/kg/injection, schedule: Q07DX002 (ip), vehicle: saline, higher = larger tumour): 107 % of control
T/C (endpoint: median tumor weight (est.), dose: 1000.0 mg/kg/injection, schedule: Q07DX002 (ip), vehicle: saline, higher = larger tumour): 107 % of control

C[C@H]1C[C@@H]2[C@H]([C@@H](O)C[C@@]3(C)[C@H]2CC[C@]3(O)C(=O)CO)[C@@]2(C)C=CC(=O)C=C12
T/C [3]: 82 % of control
T/C [4]: 87 % of control and 88 % of control
T/C [5]: 111 % of control and 86 % of control
T/C [6]: 87 % of control and 88 % of control
T/C (endpoint: median tumor weight (est.), dose: 400.0 mg/kg/injection, schedule: Q07DX002 (ip), vehicle: Klucel (hydroxypropylcellulose) (HPC), higher = larger tumour): 93 % of control

O=NN(CCF)C(=O)NC1CCCCC1
T/C [7]: 77 % of control
T/C [8]: 15 % of control

O=C1C(O)=C(c2ccccc2)C(=O)C(O)=C1c1ccccc1
T/C [9]: 103 % of control
T/C [10]: 89 % of control
T/C [11]: 111 % of control
T/C [12]: 55 % of control
T/C [13]: 86 % of control
T/C [14]: 106 % of control
T/C (endpoint: median tumor weight (est.), dose: 100.0 mg/kg/injection, schedule: Q07DX002 (ip), vehicle: saline, higher = larger tumour): 105 % of control
T/C [15]: 102 % of control

COc1ccc(OC)c(Cc2cnc3nc(N)nc(N)c3c2C)c1
T/C (endpoint: median tumor weight (est.), dose: 12.5 mg/kg/injection, schedule: Q07DX002 (ip), vehicle: water, higher = larger tumour): 62 % of control
T/C (endpoint: median tumor weight (est.), dose: 25.0 mg/kg/injection, schedule: Q07DX002 (ip), vehicle: water, higher = larger tumour): 96 % of control
T/C (endpoint: median tumor weight (est.), dose: 50.0 mg/kg/injection, schedule: Q07DX002 (ip), vehicle: water, higher = larger tumour): 67 % of control and 82 % of control
T/C (endpoint: median tumor weight (est.), dose: 100.0 mg/kg/injection, schedule: Q07DX002 (ip), vehicle: water, higher = larger tumour): 93 % of control and 100 % of control
T/C (endpoint: median tumor weight (est.), dose: 200.0 mg/kg/injection, schedule: Q07DX002 (ip), vehicle: water, higher = larger tumour): 32 % of control

C[N+](C)(C)c1ncnc2c1ncn2C1CCCO1 (stereo not drawn)
T/C [10]: 110 % of control
T/C [12]: 84 % of control
T/C [14]: 61 % of control and 77 % of control
T/C [15]: 65 % of control and 89 % of control

O=S(=O)(N=N/C=C1\C=CC=CN1O)c1cccs1
T/C [9]: 85 % of control
T/C [11]: 108 % of control and 98 % of control
T/C [13]: 92 % of control and 100 % of control
T/C [16]: 84 % of control and 99 % of control
T/C [17]: 67 % of control

CNC(=O)OCc1c(COC(=O)NC)c(C)n(-c2ccc(OC)cc2)c1C
T/C [3]: 82 % of control
T/C [7]: 69 % of control
T/C [8]: 111 % of control
T/C [5]: 68 % of control and 93 % of control
T/C [6]: 49 % of control

N#CC(=C1C=CC(=NO)C=C1)c1ccc(Cl)cc1
T/C [9]: 72 % of control
T/C [11]: 100 % of control
T/C [16]: 103 % of control
T/C [17]: 46 % of control

COc1ccc2[nH]c3ccc4cc[n+](CCN5CCC(C6CCN(CC[n+]7ccc8ccc9[nH]c%10ccc(OC)cc%10c9c8c7)CC6)CC5)cc4c3c2c1
T/C [4]: 79 % of control
T/C [8]: 70 % of control
T/C [5]: 56 % of control
